“And” between values parts separate entries of the source, which are not always exact repeats. Identical values can stand only once.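 Five concentrations, 48 hours, 96-well plates. The concentration for 50% growth inhibition is given as GI50. At the TGI there is no net growth.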
Key:
Assay in all cases: inhibition of tumour cell growth, NCI panel, 48 h
[1] = test system: 786-0 renal
[2] = test system: A498 renal
[3] = test system: A549 NSCLC
[4] = test system: ACHN renal
[5] = test system: BT-549 breast
[6] = test system: CAKI-1 renal
[7] = test system: CCRF-CEM leukemia
[8] = test system: COLO 205 colon
[9] = test system: DU-145 prostate
[10] = test system: EKVX NSCLC
[11] = test system: HCC-2998 colon
[12] = test system: HCT-116 colon
[13] = test system: HCT-15 colon
[14] = test system: HL-60(TB) leukemia
[15] = test system: HOP-62 NSCLC
[16] = test system: HOP-92 NSCLC
[17] = test system: HS 578T breast
[18] = test system: HT29 colon
[19] = test system: IGROV1 ovarian
[20] = test system: K-562 leukemia
[21] = test system: KM12 colon
[22] = test system: LOX IMVI melanoma
[23] = test system: M14 melanoma
[24] = test system: MALME-3M melanoma
[25] = test system: MCF7 breast
[26] = test system: MDA-MB-231 breast
[27] = test system: MDA-MB-435
[28] = test system: MOLT-4 leukemia
[29] = test system: NCI-H226 lung
[30] = test system: NCI-H23 lung
[31] = test system: NCI-H460 lung
[32] = test system: NCI-H522 lung
[33] = test system: NCI/ADR-RES ovarian
[34] = test system: OVCAR-3 ovarian
[35] = test system: OVCAR-4 ovarian
[36] = test system: OVCAR-5 ovarian
[37] = test system: OVCAR-8 ovarian
[38] = test system: PC-3 prostate
[39] = test system: RPMI-8226 leukemia
[40] = test system: RXF 393 renal
[41] = test system: SF-268 CNS
[42] = test system: SF-295 CNS
[43] = test system: SF-539 CNS
[44] = test system: SK-MEL-2 melanoma
[45] = test system: SK-MEL-28 melanoma
[46] = test system: SK-MEL-5 melanoma
[47] = test system: SK-OV-3 ovarian
[48] = test system: SN12C renal
[49] = test system: SNB-19 CNS
[50] = test system: SNB-75 CNS
[51] = test system: SR leukemia
[52] = test system: SW-620 colon
[53] = test system: T-47D breast
[54] = test system: TK-10 renal
[55] = test system: U251 CNS
[56] = test system: UACC-257 melanoma
[57] = test system: UACC-62 melanoma
[58] = test system: UO-31 renal

**Q.** Which results are given for `CC(=O)O[C@H]1C[C@H](O[C@H]2[C@@H](O)C[C@H](O[C@H]3[C@@H](O)C[C@H](O[C@H]4CC[C@@]5(C)C(CCC6C5C[C@@H](O)[C@]5(C)[C@@H](C7=CC(=O)OC7)CC[C@]65O)C4)O[C@@H]3C)O[C@@H]2C)O[C@H](C)[C@H]1O[C@@H]1O[C@H](CO)[C@@H](O)[C@H](O)[C@H]1O` (some centres undefined)?
**A.** GI50 [1]: 25.1 nM and 105 nM; TGI [1]: 89.4 nM and 223 nM; GI50 [2]: 78 nM; TGI [2]: 412 nM; GI50 [3]: 9.03 nM and 31.9 nM; TGI [3]: 16.5 nM and 108 nM; GI50 [4]: 20.4 nM and 44 nM; TGI [4]: 69 nM and 179 nM; GI50 [5]: 39.4 nM; TGI [5]: 129 nM; GI50 [6]: 29.4 nM and 81.3 nM; TGI [6]: 183 nM and 345 nM; GI50 [7]: 17.3 nM and 33.3 nM; TGI [7]: 49.7 nM and 180 nM; GI50 [8]: 284 nM; TGI [8]: 676 nM; GI50 [9]: 13.8 nM and 110 nM; TGI [9]: 38.7 nM and 232 nM; GI50 [10]: 22.4 nM and 56.6 nM; TGI [10]: 83.6 nM and 202 nM; GI50 [11]: 73 nM and 242 nM; TGI [11]: 210 nM and 678 nM; GI50 [12]: 18.2 nM and 39.4 nM; TGI [12]: 64 nM and 134 nM; GI50 [13]: 58.7 nM and 200 nM; TGI [13]: 174 nM and 465 nM; GI50 [14]: 11.2 nM; TGI [14]: 28.3 nM; GI50 [15]: 19.6 nM and 65.1 nM; TGI [15]: 69.1 nM and 189 nM; GI50 [16]: 78.1 nM and 158 nM; TGI [16]: 243 nM and 612 nM; TGI [17]: 1640 nM; GI50 [18]: 24.6 nM and 120 nM; TGI [18]: 86.8 nM and 395 nM; GI50 [19]: 68.5 nM and 229 nM; TGI [19]: 1370 nM and 1310 nM; GI50 [20]: 27.2 nM; TGI [20]: 204 nM; GI50 [21]: 31.9 nM and 161 nM; TGI [21]: 140 nM and 382 nM; GI50 [22]: 26.1 nM and 81.8 nM; TGI [22]: 93.7 nM and 238 nM; GI50 [23]: 103 nM and 212 nM; TGI [23]: 244 nM and 399 nM; GI50 [24]: 21.7 nM and 183 nM; TGI [24]: 130 nM and 469 nM; GI50 [25]: 24.8 nM and 57.5 nM; TGI [25]: 189 nM and 694 nM; GI50 [26]: 238 nM and 234 nM; TGI [26]: 1350 nM and 652 nM; GI50 [27]: 110 nM and 275 nM; TGI [27]: 307 nM and 893 nM; GI50 [28]: 11.7 nM and 25.7 nM; TGI [28]: 28.8 nM and 65.6 nM; GI50 [29]: 174 nM; TGI [29]: 314 nM; GI50 [30]: 15.1 nM and 46.8 nM; TGI [30]: 58.6 nM and 206 nM; GI50 [31]: 16.5 nM and 34.5 nM; TGI [31]: 55.7 nM and 135 nM; GI50 [32]: 10.7 nM and 37.5 nM; TGI [32]: 37.6 nM and 126 nM; GI50 [33]: 23.3 nM and 76.4 nM; TGI [33]: 86.1 nM and 250 nM; GI50 [34]: 18.6 nM and 93.2 nM; TGI [34]: 65.6 nM and 218 nM; GI50 [35]: 122 nM; TGI [35]: 442 nM; GI50 [36]: 65.8 nM and 175 nM; TGI [36]: 140 nM and 327 nM; GI50 [37]: 38.5 nM and 159 nM; TGI [37]: 104 nM and 385 nM; GI50 [38]: 28.7 nM and 103 nM; TGI [38]: 225 nM and 590 nM; GI50 [39]: 68.2 nM and 200 nM; TGI [39]: 315 nM and 955 nM; GI50 [40]: 15.8 nM and 63.6 nM; TGI [40]: 63.6 nM and 385 nM; GI50 [41]: 18.5 nM and 51.1 nM; TGI [41]: 73.7 nM and 165 nM; GI50 [42]: 26.8 nM and 73.7 nM; TGI [42]: 286 nM and 581 nM; GI50 [43]: 21.7 nM and 105 nM; TGI [43]: 78.3 nM and 225 nM; GI50 [44]: 315 nM; TGI [44]: 1000 nM; GI50 [45]: 115 nM and 215 nM; TGI [45]: 237 nM and 496 nM; GI50 [46]: 18.7 nM and 109 nM; TGI [46]: 69.9 nM and 233 nM; GI50 [47]: 28.7 nM and 160 nM; TGI [47]: 99.6 nM and 314 nM; GI50 [48]: 20 nM and 47.1 nM; TGI [48]: 581 nM and 413 nM; GI50 [49]: 69.2 nM and 212 nM; TGI [49]: 256 nM and 557 nM; GI50 [50]: 57.7 nM and 138 nM; TGI [50]: 147 nM and 304 nM; GI50 [51]: 15.1 nM and 44 nM; TGI [51]: 97.7 nM and 281 nM; GI50 [52]: 23.8 nM and 63.1 nM; TGI [52]: 86 nM and 302 nM; GI50 [53]: 22.8 nM and 166 nM; TGI [53]: 167 nM and 576 nM; GI50 [54]: 14.6 nM and 145 nM; GI50 [55]: 29.8 nM and 113 nM; TGI [55]: 91 nM and 234 nM; GI50 [56]: 85.2 nM and 347 nM; TGI [56]: 162 nM and 1180 nM; GI50 [57]: 93.8 nM and 173 nM; TGI [57]: 196 nM and 343 nM; GI50 [58]: 64.8 nM and 179 nM; TGI [58]: 237 nM and 343 nM

— PubChem BioAssay (NCI)
